Where two headings read alike, the source gives them in different places.
How the values were obtained:
WiDr cells = assay: Inhibition of cell growth by 5-FC in WiDr cells; format: cell-based; settings: Homo sapiens; control WiDr cells, 3,000 cells per well, dosed from Day 3, read Day 8
Procedure: (§1) FIG. 23: 5-FC dose response of mixed WiDr and WiDr/CD cells. […] Beginning on Day 3, the cells were dosed with serially diluted 5-FC at the concentrations indicated on the x axis. The plates were stained and read on Day 8.
(§2) The following data illustrates and supports this important component of this invention. A human colorectal carcinoma cell line, WiDr, was genetically engineered to express cytosine deaminase (CD) by transfecting into the cell line the cloned gene for cytosine deaminase in an appropriate expression vector system for mammalian cells. WiDr cells expressing cytosine deaminase (WiDR/CD) and control cells not expressing cytosine deaminase (WiDr) were mixed together at different ratios, then plated at a total of 3,000 cells per well in a 96 well microtiter dish. […] Using the same mixtures of WiDr and WiDr/CD cells and again plating 3,000 total cells per well in a 96 well microtiter dish, log dose response curves were generated for the inhibition of cell growth by 5-FC.

WiDr tumors = assay: 5-FC treatment of subcutaneous WiDr tumors in nude mice; format: in vivo; settings: 5-FC ip 500 mg/kg
Procedure: (§3) The same mixtures of WiDr and WiDr/CD cells were injected subcutaneously into 10 individual nude mice for 10 individual injections of 10 million cells for each mixture (Table 3). By day 6, all mice had tumors of approximately the same size. On day 6, 5 mice of each group received a daily injection of 5-FC (ip at 500 mg/kg body weight) for approximately 20 consecutive days, then injections of 5-FC (ip at 500 mg/kg body weight) three times a week for 19 days. By 22 days post tumor cell injection, all nontreated animals had to be killed due to the large size of the tumors. Likewise, all animals with WiDr derived tumors which also received 5-FC treatment had to be sacrificed on day 22 due to the size of the tumors.

WiDr/CD tumors = assay: 5-FC treatment of subcutaneous WiDr/CD tumors in nude mice; format: in vivo; settings: WiDr/CD cells injected; 5-FC ip 500 mg/kg; assessed day 130
Procedure: as §3

[1] = tested on: mixed WiDr and WiDr/CD tumors; assay: 5-FC treatment of subcutaneous mixed WiDr:WiDr/CD tumors in nude mice; format: in vivo; settings: 5-FC ip 500 mg/kg; for Number of Cures: assessed day 130
Procedure: as §3

WiDr/CD cells = assay: Inhibition of cell growth by 5-FC in WiDr/CD cells; format: cell-based; settings: Homo sapiens; WiDr/CD cells expressing cytosine deaminase, 3,000 cells per well, dosed from Day 3, read Day 8
Procedure: as §1, §2

[2] = tested on: WiDR, MCF7, Detroit 555, and SW480 nonhepatoma cell lines; assay: Growth inhibition by araM in infected nonhepatoma cell lines; format: cell-based, human; settings: four nonhepatoma cell lines infected with pCR74 or pCR78 virus
Procedure: Four human, nonhepatoma cell lines were infected with replication-defective, full-length, artifical retroviruses containing the ALB/VZV TK chimaera (pCR74) or AFP/VZV TK chimaera (pCR78). These cell lines were WiDR (ATCC CCL218), MCF7 (ATCC HTB22), Detroit 555 (ATCC CCL110), and SW480 (ATCC CCL228). Subsequent to infection and selection on Geneticin (antibiotic G418 sulphate; registered trademark of GIBCO), these cells were assayed for VZV TK activity and growth inhibition in the presence of 9-β-D-arabinofuranosyl-6-methoxy-9H-purine, as described above. There was no increase in VZV TK activity or drug sensitivity to 9-β-D-arabino-furanosyl-6-methoxy-9H-purine in these four nonhepatoma cell lines infected with replication-defective, full-length, artificial retroviruses containing the ALB/VZV TK chimaera (pCR74) or AFP/VZV TK chimaera (pCR78) compared to parental cell lines which were not infected.

HepG2 cells [3] = assay: Growth inhibition by araM in HepG2 cells; format: cell-based, human; settings: HepG2 infected with ALB/VZV TK (pCR74) virus, 5 days, read-out: IC50 (50% growth inhibition)
Procedure: (§4) The replication-defective, full-length, artificial retroviruses containing the ALB/VZV TK chimaera or AFP/VZV TK chimaera were used to infect human hepatoma cell lines called HepG2 (ATCC HB 8065) and HuH7(provided by B. Mason, Fox Chase Cancer Center, Philadelphia, Pa.). Following infection and selection on 1 mg Geneticin/mL, the cells were assayed for VZV TK activity (Geneticin(antibiotic G418 sulphate) is a registered trademark of GIBCO). In addition, HepG2 cells were incubated in the presence of (^3H)-labeled 9-β-D-arabinofuranosyl-6-methoxy-9H-purine (designated as araM in the following tables and figures) with subsequent measurement of ara-ATP formation. Finally, HepG2 and HuH7 cells were cultured in the presence of the abovementioned compound and the IC50 (50% growth inhibition) was determined. Cells infected with no virus or N2 virus act as control samples for these experiments. The N2 viruses contain no VZV TK genetic material.
(§5) HepG2 and HuH7 cells infected with the replication-defective, full-length, artificial retroviruses containing the ALB/VZV TK chimaera (pCR74) or AFP/VZV TK (pCR78) chimaera were incubated in the presence of varying amounts of 9-β-D-arabinofuranosyl-6-methoxy-9H-purine for 5 days and growth inhibition was determined as measured by cell number and DNA content.

HuH7 cells = assay: Growth inhibition by araM in HuH7 cells; format: cell-based; settings: Homo sapiens, Huh-7, 120 h, 5 days, read-out: IC50 (50% growth inhibition)
Procedure: as §4, §5

HepG2 cells [4] = assay: ara-ATP formation from (3H)-labelled araM in infected HepG2 cells; format: cell-based, human; settings: HepG2 cells infected with either pCR74- or pCR78-containing viruses
Procedure: as §4
9-β-D-arabinofuranosyl-6-methoxy-9H-purine (designated as araM) can be selectively monophosphorylated by VZV TK with subsequent anabolism to cytotoxic ara-ATP.

| Structure (SMILES) | IC50 (WiDr cells) | Number of Cures (WiDr tumors; WiDR cells injected, assessed day 22) | effect on tumors (WiDr tumors; WiDr tumors that do not express cytosine deaminase) | Number of Cures (WiDr/CD tumors) | Number of Cures ([1]; WiDr:WiDr/CD (1:1) injected) | Number of Cures ([1]; WiDr:WiDr/CD (1:2) injected) | Number of Cures ([1]; WiDr:WiDr/CD (2:1) injected) | antitumor effects ([1]; all tumor groups composed of mixtures of cells which contained WiDr/CD cells) | IC50 (WiDr/CD cells) | increase in drug sensitivity compared to parental cell lines not infected [2] | IC50 (HepG2 cells [3]; listed as 9-B-D-arabinofuranosyl-6-methoxy-9H-purine) | IC50 (HepG2 cells [3]; Homo sapiens, HepG2, 120 h) | IC50 (HuH7 cells; HuH7, no virus (control)) | IC50 (HuH7 cells; HuH7 infected with AFP/VZV TK (pCR78) virus) | IC50 (HuH7 cells; HuH7 infected with ALB/VZV TK (pCR74) virus) | cytotoxic (3H)-ara-ATP formation (HepG2 cells [4]) |
| --- | --- | --- | --- | --- | --- | --- | --- | --- | --- | --- | --- | --- | --- | --- | --- | --- |
| Nc1nc(=O)[nH]cc1F [5-FC, 5-fluorocytosine] | 10000 to 30000 µM | 0/5 | no effect | 3/5 | 4/5 | 4/5 | 4/5 | significant antitumor effects | 10 to 25 µM |  |  |  |  |  |  |  |
| COc1ncnc2c1ncn2[C@@H]1O[C@H](CO)[C@@H](O)[C@@H]1O [araM, 9-β-D-arabinofuranosyl-6-methoxy-9H-purine] |  |  |  |  |  |  |  |  |  | no increase | 5 µM | 6.5 µM | ~1620 µM | 76 µM | 11 µM | significant amounts |
